As a reminder, the IC50 is the midpoint of a concentration-inhibition curve. A lower IC50 goes with greater potency.

In the first assay the target is FASN enzyme (Homo sapiens, UniProt P49327). The experiment in a line: Enzymatic Assay for FASN Inhibitors. Format: biochemical.
FASN enzyme, sequence (P49327 whole entry): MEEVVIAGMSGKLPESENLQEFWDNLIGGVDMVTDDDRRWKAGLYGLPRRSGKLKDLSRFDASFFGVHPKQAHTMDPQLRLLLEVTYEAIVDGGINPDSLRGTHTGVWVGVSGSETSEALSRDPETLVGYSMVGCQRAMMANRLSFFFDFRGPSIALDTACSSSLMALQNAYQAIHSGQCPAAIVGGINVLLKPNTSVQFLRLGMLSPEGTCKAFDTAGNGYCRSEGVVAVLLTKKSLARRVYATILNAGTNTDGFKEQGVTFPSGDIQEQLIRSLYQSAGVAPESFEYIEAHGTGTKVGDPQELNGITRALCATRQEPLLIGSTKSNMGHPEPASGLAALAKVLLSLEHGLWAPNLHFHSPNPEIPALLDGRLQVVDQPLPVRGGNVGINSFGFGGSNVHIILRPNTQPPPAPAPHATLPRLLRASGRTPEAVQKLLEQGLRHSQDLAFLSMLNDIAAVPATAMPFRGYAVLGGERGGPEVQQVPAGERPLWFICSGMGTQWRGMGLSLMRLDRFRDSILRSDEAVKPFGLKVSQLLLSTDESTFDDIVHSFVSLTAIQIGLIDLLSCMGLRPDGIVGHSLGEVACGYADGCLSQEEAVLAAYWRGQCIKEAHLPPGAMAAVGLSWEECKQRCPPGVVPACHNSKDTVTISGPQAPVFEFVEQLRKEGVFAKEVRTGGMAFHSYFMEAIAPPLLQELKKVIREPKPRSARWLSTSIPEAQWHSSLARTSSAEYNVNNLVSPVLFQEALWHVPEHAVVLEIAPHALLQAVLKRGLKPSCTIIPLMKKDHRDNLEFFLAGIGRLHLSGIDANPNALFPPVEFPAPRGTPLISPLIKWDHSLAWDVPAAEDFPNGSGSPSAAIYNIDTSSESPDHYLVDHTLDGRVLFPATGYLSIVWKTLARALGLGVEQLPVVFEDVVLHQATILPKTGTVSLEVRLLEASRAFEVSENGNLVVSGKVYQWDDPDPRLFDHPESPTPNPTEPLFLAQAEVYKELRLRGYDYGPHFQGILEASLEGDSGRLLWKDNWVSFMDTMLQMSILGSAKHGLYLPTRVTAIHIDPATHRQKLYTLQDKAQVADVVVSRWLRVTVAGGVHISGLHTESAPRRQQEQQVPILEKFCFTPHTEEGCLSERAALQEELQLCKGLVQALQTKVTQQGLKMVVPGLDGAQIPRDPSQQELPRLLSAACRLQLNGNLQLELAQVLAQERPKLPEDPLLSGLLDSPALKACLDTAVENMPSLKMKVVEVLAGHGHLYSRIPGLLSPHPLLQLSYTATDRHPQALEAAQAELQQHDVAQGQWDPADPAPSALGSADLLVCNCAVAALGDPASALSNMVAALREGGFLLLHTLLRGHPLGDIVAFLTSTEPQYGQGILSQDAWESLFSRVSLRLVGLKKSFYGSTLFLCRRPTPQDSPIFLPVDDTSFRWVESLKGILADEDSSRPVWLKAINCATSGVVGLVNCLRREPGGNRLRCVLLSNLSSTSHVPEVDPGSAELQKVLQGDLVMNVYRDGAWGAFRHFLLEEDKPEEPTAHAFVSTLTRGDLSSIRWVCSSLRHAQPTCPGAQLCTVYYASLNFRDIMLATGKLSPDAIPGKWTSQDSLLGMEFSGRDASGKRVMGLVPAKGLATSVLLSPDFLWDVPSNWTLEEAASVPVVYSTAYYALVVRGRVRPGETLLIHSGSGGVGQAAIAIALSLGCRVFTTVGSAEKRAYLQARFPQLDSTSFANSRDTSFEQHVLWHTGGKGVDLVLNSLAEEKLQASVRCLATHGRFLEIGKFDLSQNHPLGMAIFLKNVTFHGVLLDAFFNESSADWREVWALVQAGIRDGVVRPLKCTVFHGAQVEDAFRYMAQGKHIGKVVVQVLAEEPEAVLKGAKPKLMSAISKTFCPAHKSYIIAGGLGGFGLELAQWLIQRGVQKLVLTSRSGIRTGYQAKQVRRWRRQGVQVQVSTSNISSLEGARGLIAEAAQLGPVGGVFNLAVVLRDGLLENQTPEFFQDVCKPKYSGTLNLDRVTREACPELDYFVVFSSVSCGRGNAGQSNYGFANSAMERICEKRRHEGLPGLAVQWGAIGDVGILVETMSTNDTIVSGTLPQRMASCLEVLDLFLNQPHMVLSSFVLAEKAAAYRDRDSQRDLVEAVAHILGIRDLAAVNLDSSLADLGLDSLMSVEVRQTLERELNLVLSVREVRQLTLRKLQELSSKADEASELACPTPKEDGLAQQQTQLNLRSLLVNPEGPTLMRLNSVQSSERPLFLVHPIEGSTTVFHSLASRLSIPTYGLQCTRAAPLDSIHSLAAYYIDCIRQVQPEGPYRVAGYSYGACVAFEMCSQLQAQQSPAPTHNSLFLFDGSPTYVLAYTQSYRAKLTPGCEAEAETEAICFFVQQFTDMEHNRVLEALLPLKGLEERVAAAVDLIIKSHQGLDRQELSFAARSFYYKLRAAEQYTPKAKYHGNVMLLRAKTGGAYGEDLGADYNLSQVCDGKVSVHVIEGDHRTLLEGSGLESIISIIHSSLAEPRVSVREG
Details: not given
As for the experimental part: Assays were performed in a 384-well black plate to measure the inhibition of FASN activities by individual compounds herein disclosed. An aliquot of 250 nL of compound was incubated with 10 μL of 40 nM FASN enzyme in assay buffer (50 mM HEPES pH=7.3, 0.5 mM EDTA, 1 mM Ascorbate, 100 mM NaCl and 0.04% TritonX-100) in each well at 25° C. for 60 minutes. After the plate was centrifuged briefly, 10 μL of substrate mix (20 μM Acetyl-CoA, 60 μM Malonyl-CoA, and 100 μM NADPH in assay buffer) was added to each well. The reaction was maintained at 25° C. for 90 minutes. The reaction was then quenched by adding 10 μL of 90 μM 7-Diethylamino-3-(4′-Maleimidylpheynyl)-4-Methylcoumarin in 50/50 Ethanol/H2O solution. The assay plate was incubated at 25° C. for 15 minutes, and read on a plate reader with excitation and emission wavelength at 360 nm and 530 nm, respectively. The IC50 of a given compound was calculated by fitting the dose response curve with a four parameter logistic equation.
In turn, `Nc1nc(-c2cccc(-c3ccc(C(=O)N4CCN(C(=O)C5(O)CC5)CC4)cc3)c2)cs1` [1-(4-{4-[3-(2-amino-1,3-thiazol-4-yl)phenyl]benzoyl}piperazine-1-carbonyl)cyclopropan-1-ol] registered an IC50 of less than 0.5 µM.

`Nc1cc(-c2cccc(-c3ccc(C(=O)N4CCN(C(=O)C5(O)CC5)CC4)c(F)c3)c2)no1` [1-(4-{4-[3-(5-amino-1,2-oxazol-3-yl)phenyl]-2-fluorobenzoyl}piperazine-1-carbonyl)cyclopropan-1-ol] had an IC50 of less than 0.5 µM.

In turn, `Nc1cc(-c2cccc(-c3ccc(C(=O)N4CCN(C(=O)C5(O)CC5)CC4)cc3)c2)no1` [1-(4-{4-[3-(5-amino-1,2-oxazol-3-yl)phenyl]benzoyl}piperazine-1-carbonyl)cyclopropan-1-ol] displayed an IC50 of less than 0.5 µM.

Consider `Nc1nc(-c2cccc(-c3ccc(C(=O)N4CCN(C(=O)C5(O)CC5)CC4)cc3)c2)n[nH]1` [1-(4-{4-[3-(5-amino-1H-1,2,4-triazol-3-yl)phenyl]benzoyl}piperazine-1-carbonyl)cyclopropan-1-ol], for which the IC50 is less than 0.5 µM.

Take `Nc1cc(-c2cccc(-c3ccc(C(=O)N4CCN(C(=O)C5(O)CC5)CC4)cc3)c2)n[nH]1` [1-(4-{4-[3-(5-amino-1H-pyrazol-3-yl)phenyl]benzoyl}piperazine-1-carbonyl)cyclopropan-1-ol]: the IC50 is less than 0.5 µM.

On to `Cc1nc(-c2cccc(-c3ccc(C(=O)N4CCN(C(=O)C5(O)CC5)CC4)cc3)c2)no1` [1-(4-{4-[3-(5-methyl-1,2,4-oxadiazol-3-yl)phenyl]benzoyl}piperazine-1-carbonyl)cyclopropan-1-ol], for which the IC50 is less than 0.5 µM.

`Cc1nnc(-c2cccc(-c3ccc(C(=O)N4CCN(C(=O)C5(O)CC5)CC4)cc3)c2)s1` [1-(4-{4-[3-(5-methyl-1,3,4-thiadiazol-2-yl)phenyl]benzoyl}piperazine-1-carbonyl)cyclopropan-1-ol] yielded an IC50 of less than 0.5 µM.

In turn, `O=C(c1ccc(-c2cccc(S(=O)(=O)C3CC3)c2)cc1F)N1CCN(C(=O)C2(O)CC2)CC1` [1-(4-{4-[3-(cyclopropanesulfonyl)phenyl]-2-fluorobenzoyl}piperazine-1-carbonyl)cyclopropan-1-ol] returned an IC50 of less than 0.5 µM.

For `Cn1cc(-c2ccc(-c3ccc(C(=O)N4CCN(C(=O)C5(O)CC5)CC4)cc3)cc2)cn1` [1-(4-{4-[4-(1-methyl-1H-pyrazol-4-yl)phenyl]benzoyl}piperazine-1-carbonyl)cyclopropan-1-ol], the IC50 is less than 0.5 µM.

In turn, `O=C(c1ccc(-c2ccccc2)cc1)N1CCN(C(=O)C2(O)CC2)CC1` [1-({4-[(4-phenylphenyl)carbonyl]piperazin-1-yl}carbonyl)cyclopropan-1-ol] came in with an IC50 of less than 0.5 µM.

As to `O=C(c1ccc(-c2nc3ccccn3c2Cl)cc1Cl)N1CCN(C(=O)C2(O)CC2)CC1` [1-[4-(2-chloro-4-{3-chloroimidazo[1,2-a]pyridin-2-yl}benzoyl)piperazine-1-carbonyl]cyclopropan-1-ol], the IC50 is less than 0.5 µM.

In turn, `O=C(c1ccc(-c2nc3ccccn3c2Cl)c(Cl)c1)N1CCN(C(=O)C2(O)CC2)CC1` [1-[4-(3-chloro-4-{3-chloroimidazo[1,2-a]pyridin-2-yl}benzoyl)piperazine-1-carbonyl]cyclopropan-1-ol] had a half-inhibitory concentration (IC50) of less than 0.5 µM.

As for `O=C(c1ccc(N2CCc3[nH]c4ccccc4c3C2)cc1)N1CCN(C(=O)C2(O)CC2)CC1` [1-[4-(4-{1H,2H,3H,4H,5H-pyrido[4,3-b]indol-2-yl}benzoyl)piperazine-1-carbonyl]cyclopropan-1-ol], the half-inhibitory concentration (IC50) was less than 0.5 µM.

Turning to `O=C(c1ccc(N2CCc3c([nH]c4ccccc34)C2)cc1)N1CCN(C(=O)C2(O)CC2)CC1` [1-[4-(4-{1H,2H,3H,4H,9H-pyrido[3,4-b]indol-2-yl}benzoyl)piperazine-1-carbonyl]cyclopropan-1-ol], the half-inhibitory concentration (IC50) was less than 0.5 µM.

For `O=C(c1ccc(-c2nc3ccccn3c2Cl)cc1F)N1CCN(C(=O)C2(O)CC2)CC1` [1-[4-(4-{3-chloroimidazo[1,2-a]pyridin-2-yl}-2-fluorobenzoyl)piperazine-1-carbonyl]cyclopropan-1-ol], the IC50 was less than 0.5 µM.

In turn, `O=C(c1ccc(-c2nc3ccccn3c2Cl)c(F)c1)N1CCN(C(=O)C2(O)CC2)CC1` [1-[4-(4-{3-chloroimidazo[1,2-a]pyridin-2-yl}-3-fluorobenzoyl)piperazine-1-carbonyl]cyclopropan-1-ol] came in with an IC50 of less than 0.5 µM.

Regarding `Cc1n[nH]c2ncc(-c3ccc(C(=O)N4CCN(C(=O)C5(O)CC5)CC4)cc3)cc12` [1-[4-(4-{3-methyl-1H-pyrazolo[3,4-b]pyridin-5-yl}benzoyl)piperazine-1-carbonyl]cyclopropan-1-ol], the half-maximal inhibitory concentration (IC50) was less than 0.5 µM.

`O=C(c1ccc(N2CCc3sccc3C2)cc1)N1CCN(C(=O)C2(O)CC2)CC1` [1-[4-(4-{4H,5H,6H,7H-thieno[3,2-c]pyridin-5-yl}benzoyl)piperazine-1-carbonyl]cyclopropan-1-ol] returned an IC50 of less than 0.5 µM.

The compound `O=C(c1ccc(-c2ccc3ccnn3c2)cc1)N1CCN(C(=O)C2(O)CC2)CC1` [1-[4-(4-{pyrazolo[1,5-a]pyridin-6-yl}benzoyl)piperazine-1-carbonyl]cyclopropan-1-ol] showed an IC50 of less than 0.5 µM.

On to `Cn1cnc2cc(-c3ccc(C(=O)N4CCN(C(=O)C5(O)CC5)[C@@H](CO)C4)cc3)ccc21` [1-[(2R)-2-(hydroxymethyl)-4-[4-(1-methyl-1H-1,3-benzodiazol-5-yl)benzoyl]piperazine-1-carbonyl]cyclopropan-1-ol], for which the IC50 is less than 0.5 µM.

In turn, `C[C@@H]1CN(C(=O)c2ccc(-c3ccc4c(c3)ncn4C)cc2)CCN1C(=O)C1(O)CC1` [1-[(2R)-2-methyl-4-[4-(1-methyl-1H-1,3-benzodiazol-5-yl)benzoyl]piperazine-1-carbonyl]cyclopropan-1-ol] came in with an IC50 of less than 0.5 µM.

`C[C@@H]1CN(C(=O)c2ccc(-c3ccc(Cl)cc3F)cc2)CCN1C(=O)C1(O)CC1` [1-[(2R)-4-[4-(4-chloro-2-fluorophenyl)benzoyl]-2-methylpiperazine-1-carbonyl]cyclopropan-1-ol] had an IC50 of less than 0.5 µM.

Consider `C[C@@H]1CN(C(=O)c2ccc(-c3nc4ccc(F)cc4o3)cc2)CCN1C(=O)C1(O)CC1` [1-[(2R)-4-[4-(6-fluoro-1,3-benzoxazol-2-yl)benzoyl]-2-methylpiperazine-1-carbonyl]cyclopropan-1-ol], for which the half-inhibitory concentration (IC50) is less than 0.5 µM.

`C[C@@H]1CN(C(=O)c2ccc(-c3ccc4c(c3)ncn4C)cc2)C[C@H](C)N1C(=O)C1(O)CC1` [1-[(2R,6S)-2,6-dimethyl-4-[4-(1-methyl-1H-1,3-benzodiazol-5-yl)benzoyl]piperazine-1-carbonyl]cyclopropan-1-ol] came in with a half-inhibitory concentration (IC50) of less than 0.5 µM.

The assay is the same for the next values; noted with them: FASN enzymatic assay; Table 2-2.
Regarding `O=C(c1ccc(-c2ccccc2)cc1)N1CCN(C(=O)C2(O)CCC2)CC1` [1-({4-[(4-phenylphenyl)carbonyl]piperazin-1-yl}carbonyl)cyclobutan-1-ol], the IC50 fell in the range of 0.5 to 5 µM.

`O=C(c1ccc(-c2cnc3ccc(Cl)cn23)cc1)N1CCN(C(=O)C2(O)CC2)CC1` [1-({4-[(4-{6-chloroimidazo[1,2-a]pyridin-3-yl}phenyl)carbonyl]piperazin-1-yl}carbonyl)cyclopropan-1-ol] yielded an IC50 of 0.5 to 5 µM.

The compound `COc1ccc2nc(-c3ccc(C(=O)N4CCN(C(=O)C5(O)CC5)CC4)cc3)cn2c1` [1-({4-[(4-{6-methoxyimidazo[1,2-a]pyridin-2-yl}phenyl)carbonyl]piperazin-1-yl}carbonyl)cyclopropan-1-ol] showed an IC50 of 0.5 to 5 µM.

The compound `O=C(c1ccc(-c2nccc3occc23)cc1)N1CCN(C(=O)C2(O)CC2)CC1` [1-({4-[(4-{furo[3,2-c]pyridin-4-yl}phenyl)carbonyl]piperazin-1-yl}carbonyl)cyclopropan-1-ol] returned a concentration for half-maximal inhibition (IC50) of 0.5 to 5 µM.

`O=C(c1ccc(-c2cn3ccnc3cn2)cc1)N1CCN(C(=O)C2(O)CC2)CC1` [1-({4-[(4-{imidazo[1,2-a]pyrazin-6-yl}phenyl)carbonyl]piperazin-1-yl}carbonyl)cyclopropan-1-ol] yielded a half-inhibitory concentration (IC50) of 0.5 to 5 µM.

`O=C(c1ccc(-c2ccc3nccn3c2)cc1)N1CCN(C(=O)C2(O)CC2)CC1` [1-({4-[(4-{imidazo[1,2-a]pyridin-6-yl}phenyl)carbonyl]piperazin-1-yl}carbonyl)cyclopropan-1-ol] yielded an IC50 of 0.5 to 5 µM.

The compound `O=C(c1ccc(-c2ccn3ccnc3n2)cc1)N1CCN(C(=O)C2(O)CC2)CC1` [1-({4-[(4-{imidazo[1,2-a]pyrimidin-7-yl}phenyl)carbonyl]piperazin-1-yl}carbonyl)cyclopropan-1-ol] had a half-maximal inhibitory concentration (IC50) of 0.5 to 5 µM.

The same assay, now with this note: FASN enzymatic assay; Table 2-3.
`O=C(c1cccc(Oc2ccccc2)c1)N1CCN(C(=O)C2(O)CC2)CC1` [1-({4-[(3-phenoxyphenyl)carbonyl]piperazin-1-yl}carbonyl)cyclopropan-1-ol] registered a half-inhibitory concentration (IC50) of no less than 5 µM.

As for `O=C(c1ccc(Oc2ccccc2)cc1)N1CCN(C(=O)C2(O)CC2)CC1` [1-({4-[(4-phenoxyphenyl)carbonyl]piperazin-1-yl}carbonyl)cyclopropan-1-ol], the half-maximal inhibitory concentration (IC50) is no less than 5 µM.

Compound `O=C(c1ccc(-c2ccccc2)cc1)N1CCN(C(=O)C2(O)CCCC2)CC1` [1-({4-[(4-phenylphenyl)carbonyl]piperazin-1-yl}carbonyl)cyclopentan-1-ol] registered a 50% inhibitory concentration (IC50) of no less than 5 µM.

The compound `O=C(c1ccc(-c2cn3cc(F)ccc3n2)cc1)N1CCN(C(=O)C2(O)CC2)CC1` [1-({4-[(4-{6-fluoroimidazo[1,2-a]pyridin-2-yl}phenyl)carbonyl]piperazin-1-yl}carbonyl)cyclopropan-1-ol] displayed an IC50 of no less than 5 µM.

The values are drawn from US10457655B2, “Compounds and compositions for inhibition of FASN” (FORMA Therapeutics, Inc., priority 2013, dated 2019).
